Laboratory results taken from ChEMBL document CHEMBL6120983, “Synthesis and Structure-Activity Relationship of Covalent Inhibitors of SARS-CoV-2 Papain-Like Protease with Antiviral Potency” (Bioorg Med Chem Lett, 2025).

Experiments:
[1] = molecular target: Replicase polyprotein 1ab (Severe acute respiratory syndrome coronavirus 2, UniProt P0DTD1); assay: Inhibition of SARS-CoV-2 papain-like protease using Z-Arg-Leu-Arg-Gly-Gly-AMC as substrate incubated for 15 mins
SARS-CoV-2 = assay: Antiviral activity against SARS CoV-2 infected in human HeLa-ACE2 assessed as reduction in viral replication incubated for 24 hrs; type: functional; details: Severe acute respiratory syndrome coronavirus 2, HeLa-ACE2
[2] = Cytotoxicity against human A549-ACE2 cells assessed as reduction in cell viability; type: toxicity, cell-based
[3] = Ratio of CC50 for cytotoxicity against human A549-ACE2 cells assessed as reduction in cell viability to EC90 for antiviral activity against SARS CoV-2 infected in human HeLa-ACE2 assessed as reduction in viral replication; type: toxicity, cell-based
[4] = Plasma protein binding in human; type: ADME, cell-free; details: read-out: PPB (converted)
[5] = Intrinsic clearance in mouse liver microsomes; type: ADME, Microsome; details: read-out: CLH
[6] = Half life in dog at 2 mg/kg, iv; type: ADME, organism-based, Canis lupus familiaris; details: in vivo
[7] = Half life in dog at 20 mg/kg, po; type: ADME, organism-based, Canis lupus familiaris; details: in vivo
[8] = Cmax in dog at 2 mg/kg, iv; type: ADME, organism-based, Canis lupus familiaris; details: in vivo
[9] = Cmax in dog at 20 mg/kg, po; type: ADME, organism-based, Canis lupus familiaris; details: in vivo
[10] = Tlast in dog at 2 mg/kg, iv; type: ADME, organism-based, Canis lupus familiaris; details: in vivo
[11] = Tlast in dog at 20 mg/kg, po; type: ADME, organism-based, Canis lupus familiaris; details: in vivo
[12] = AUC (0 to last) in dog at 2 mg/kg, iv; type: ADME, organism-based, Canis lupus familiaris; details: in vivo
[13] = AUC (0 to last) in dog at 20 mg/kg, po; type: ADME, organism-based, Canis lupus familiaris; details: in vivo
[14] = Volume of distribution in dog at 2 mg/kg, iv; type: ADME, organism-based, Canis lupus familiaris; details: in vivo
[15] = Clearance in dog at 2 mg/kg, iv; type: ADME, organism-based, Canis lupus familiaris; details: in vivo
[16] = Clearance in dog at 20 mg/kg, po; type: ADME, organism-based, Canis lupus familiaris; details: in vivo
[17] = MRT (0 to last) in dog at 2 mg/kg, iv; type: ADME, organism-based, Canis lupus familiaris; details: in vivo
[18] = MRT (0 to last) in dog at 20 mg/kg, po; type: ADME, organism-based, Canis lupus familiaris; details: in vivo
[19] = Oral bioavailability in dog at 20 mg/kg; type: ADME, organism-based, Canis lupus familiaris; details: in vivo
[20] = Lipophilicity, logD of compound; type: physicochemical; details: octanol/water

Structure (SMILES) | IC50 [1] [nM] | EC90 (SARS-CoV-2) [nM] | CC50 ([2]; a549-ace2) [µM] | CC50 ([2]; A549-ACE2 cells) [µM] | also measured
C[C@@H](NC(=O)c1ccccc1CCC(=O)NNC(=O)/C=C/C(=O)OCc1ncccn1)c1cccc2ccccc12 | 350 | 3030 | 30.1 |  | 
C[C@@H](NC(=O)c1ccccc1CCC(=O)NNC(=O)CC#N)c1cccc2ccccc12 | 9500 | > 9600 |  | > 99 | 
C[C@@H](NC(=O)c1ccccc1CCC(=O)NNC(=O)COC(F)(F)F)c1cccc2ccccc12 | 52900 | > 9600 |  | > 99 | 
C[C@@H](NC(=O)c1ccccc1CCC(=O)NNC(=O)/C=C/C(=O)OCc1ccccc1)c1cccc2ccccc12 | 520 | 780 | 98.9 |  | 
CCOC(=O)/C=C/C(=O)NNC(=O)CCc1ccccc1C(=O)N[C@H](C)c1cccc(-c2cccs2)c1 | 140 | 210 |  |  | selectivity ratio [3]: 56.7; fraction unbound [4]: 0.014; microsomal CLint [5]: 618 µL/min/mg; half-life [6]: 6.48 min; half-life [7]: 157 min; Cmax [8]: 3220 ng/mL; Cmax [9]: 20 ng/mL; Tlast [10]: 1 h; Tlast [11]: 8 h; AUC(0-t) [12]: 362 ng·h/mL; AUC(0-t) [13]: 62 ng·h/mL; Vd [14]: 0.681 L/kg; clearance [15]: 95.1 mL/min/kg; CL/F [16]: 5090 mL/min/kg; MRT last [17]: 7.02 min; MRT last [18]: 2.94 h; bioavailability [19]: 1.9%
CC#CC(=O)NNC(=O)CCc1ccccc1C(=O)N[C@H](C)c1cccc2ccccc12 | 11300 | > 9600 | 68.9 |  | 
C[C@@H](NC(=O)c1ccccc1CCC(=O)NNC(=O)/C=C/C#N)c1cccc2ccccc12 | 1900 | 15200 | 13.1 |  | 
C[C@@H](NC(=O)c1ccccc1CCC(=O)NNC(=O)/C=C/C(=O)OC1CCC1)c1cccc2ccccc12 | 330 | 270 | 64.8 |  | 
C[C@@H](NC(=O)c1ccccc1CCC(=O)NNC(=O)/C=C/C(=O)OCC1CCCC1)c1cccc2ccccc12 | 1620 | 310 | 69.5 |  | 
COC(=O)/C=C/C(=O)NNC(=O)CCc1ccccc1C(=O)N[C@H](C)c1cccc(-c2cn[nH]c2)c1 | 210 | 3580 |  | > 99 | 
C[C@@H](NC(=O)c1ccccc1CCC(=O)NNC(=O)/C=C/C(=O)OCCC(F)(F)F)c1cccc2ccccc12 | 250 | 1260 | 61.9 |  | 
C[C@@H](NC(=O)c1ccccc1CCC(=O)NNC(=O)/C=C/C(=O)OCc1nccs1)c1cccc2ccccc12 | 340 | 9230 | 16 |  | 
CNC(=O)/C=C/C(=O)NNC(=O)CCc1ccccc1C(=O)N[C@H](C)c1cccc2ccccc12 | 16200 | > 9600 |  | > 99 | 
C[C@@H](NC(=O)c1ccccc1CCC(=O)NNC(=O)/C=C/C(=O)OCc1ccc2ccccc2n1)c1cccc2ccccc12 | 450 | 1140 | 13.6 |  | 
COC(=O)/C=C\C(=O)NNC(=O)CCc1ccccc1C(=O)N[C@H](C)c1cccc2ccccc12 |  | 710 | 34.6 |  | 
COC(=O)/C=C/CNC(=O)CCc1ccccc1C(=O)N[C@H](C)c1cccc2ccccc12 | 26200 | > 9600 | 87.9 |  | 
COC(=O)/C=C/C(=O)NNC(=O)CCc1ccccc1C(=O)N[C@H](C)c1cccc(C2=CCOCC2)c1 | 290 | 1240 | 48.4 |  | 

Structure (SMILES) | IC50 [1] [nM] | EC90 (SARS-CoV-2) [nM] | CC50 ([2]; a549-ace2) [µM] | CC50 ([2]; A549-ACE2 cells) [µM] | also measured
C[C@@H](NC(=O)c1ccccc1CCC(=O)NNC(=O)C(F)Cl)c1cccc2ccccc12 (stereo not given in full) | 15800 | > 9600 |  | > 99 | 
COC(=O)/C=C/C(=O)NNC(=O)CCc1ccccc1C(=O)N[C@H](C)c1cccc(-c2cc3ccccc3o2)c1 | 250 | 120 | 59 |  | 
C[C@@H](NC(=O)c1ccccc1CCC(=O)NNC(=O)/C=C/C(=O)OC1CCCCC1)c1cccc2ccccc12 | 960 | 410 |  | > 99 | 
COC(=O)/C=C/C(=O)NNC(=O)CCc1ccccc1C(=O)N[C@H](C)c1cccc2ccccc12 |  | 490 | 29.9 |  | logD [20]: 3; fraction unbound [4]: 0.049; microsomal CLint [5]: 144 µL/min/mg; half-life [6]: 6 min; half-life [7]: 72.6 min; Cmax [8]: 2840 ng/mL; Cmax [9]: 84 ng/mL; Tlast [10]: 1 h; Tlast [11]: 8 h; AUC(0-t) [12]: 315 ng·h/mL; AUC(0-t) [13]: 91 ng·h/mL; Vd [14]: 0.742 L/kg; clearance [15]: 107 mL/min/kg; CL/F [16]: 3710 mL/min/kg; MRT last [17]: 6.84 min; MRT last [18]: 1.62 h; bioavailability [19]: 2.9%
COC(=O)/C=C/C(=O)NNC(=O)CCc1ccccc1C(=O)N[C@H](C)c1cccc(-c2cncnc2)c1 | 350 | 9550 |  | > 99 | 
CC(=O)C(=O)NNC(=O)CCc1ccccc1C(=O)N[C@H](C)c1cccc2ccccc12 | 37300 | > 9600 |  | > 99 | 
C=C(CC(=O)NNC(=O)CCc1ccccc1C(=O)N[C@H](C)c1cccc2ccccc12)C(=O)OC | 17900 | 8300 | 6.1 |  | 
CC(C)OC(=O)/C=C/C(=O)NNC(=O)CCc1ccccc1C(=O)N[C@H](C)c1cccc2ccccc12 | 240 | 560 | 59.3 |  | 
COc1ccc(COC(=O)/C=C/C(=O)NNC(=O)CCc2ccccc2C(=O)N[C@H](C)c2cccc3ccccc23)cc1OC | 1010 | 260 |  | > 99 | 
C[C@@H](NC(=O)c1ccccc1CCC(=O)NNC(=O)/C=C/C(=O)O)c1cccc2ccccc12 | 2600 | > 9600 |  | > 99 | 
C[C@@H](NC(=O)c1ccccc1CCC(=O)NNC(=O)/C=C/c1ncco1)c1cccc2ccccc12 | 44500 | > 9600 |  | > 99 | 
CCOC(=O)/C=C/C(=O)NNC(=O)CCc1ccccc1C(=O)N[C@H](C)c1cccc2ccccc12 | 190 | 310 | 44.7 |  | 
C[C@@H](NC(=O)c1ccccc1CCC(=O)NNC(=O)/C=C/C(=O)OC(C)(C)C)c1cccc2ccccc12 | 240 | 1750 | 64 |  | 
C[C@@H](NC(=O)c1ccccc1CCC(=O)NNC(=O)/C=C/C(=O)N(C)C)c1cccc2ccccc12 | 18500 | > 9600 |  | > 99 | 
CC(=O)/C=C/C(=O)NNC(=O)CCc1ccccc1C(=O)N[C@H](C)c1cccc2ccccc12 | 27200 | 12900 |  | > 99 | 
CCCCOC(=O)/C=C/C(=O)NNC(=O)CCc1ccccc1C(=O)N[C@H](C)c1cccc2ccccc12 | 240 | 180 |  | > 99 | 
